From ChEMBL document CHEMBL5338705, “Discovery of 1,3,4-oxadiazole derivatives containing a bisamide moiety as a novel class of potential cardioprotective agents” (Eur J Med Chem, 2022) come the findings set out here.

Activity calls are given as the source filed them. No cut-off for these calls is given here.

Experiment [1] deals with H9c2. The experiment can be described thus: Cytoprotective activity against H2O2-induced oxidative damage in rat H9c2 cells assessed as cell viability at 20 uM preincubated for 24 hrs followed by H2O2 treatment for another 1.5 hrs by MTT assay (reference value: 32.52 to 44.40%). The class given is functional. As to conditions: time 25.5 hrs, read-out: Activity. A general note: Formazan colour is commonly taken as a measure of viable cells.

In experiment [2] the test system is H9c2. Kind of experiment: Cytoprotective activity against H2O2-induced oxidative damage in rat H9c2 cells assessed as fold reduction in cell viability at 20 uM preincubated for 24 hrs followed by H2O2 treatment for another 1.5 hrs by MTT assay. The class given is functional. As to conditions: time 25.5 hrs.
Experiment [3] concerns H9c2. Kind of experiment: Antioxidant activity in H2O2-induced oxidative stress in rat H9c2 cells assessed as increase in expression of NQO1 level at 80 uM measured after 1.5 hrs by Western blotting analysis. Type of experiment: functional, cell-based.
Experiment [4] deals with H9c2. The experiment can be described thus: Anti-apoptotic activity in H202 induced rat H9c2 cells assessed as decrease in Bcl2 level at 80 uM measured after 1.5 hrs by Western blot analysis. The class given is functional, cell-based. (A western blot detects proteins with antibodies after separation by electrophoresis.)
Experiment [5] deals with H9c2. Kind of experiment: Cytoprotective activity against H2O2-induced oxidative damage in rat H9c2 cells assessed as cell viability at 80 uM preincubated for 24 hrs followed by H2O2 treatment for another 1.5 hrs by MTT assay. As to conditions: time 25.5 hrs. Type of experiment: functional, cell-based.
Experiment [6] deals with H9c2. Kind of experiment: Antioxidant activity in H2O2-induced oxidative stress in rat H9c2 cells assessed as increase in expression of Nrf2 level at 80 uM measured after 1.5 hrs by Western blotting analysis. Type of experiment: functional, cell-based.
The test system of experiment [7] is H9c2. The experiment can be described thus: Protection against H2O2-induced cell damage in rat H9c2 cells assessed as recovery of cell shrinkage at 100 uM. Type of experiment: functional, cell-based.
Experiment [8] has as its system H9c2. The experiment can be described thus: Anti-apoptotic activity in H202 induced rat H9c2 cells assessed as increase in caspase 9 level at 80 uM measured after 1.5 hrs by Western blot analysis. The class given is functional, cell-based.
For experiment [9], the system named is H9c2. The experiment can be described thus: Downregulation of H2O2 induced BNP level in rat H9c2 cells at 80 uM measured after 1.5 hrs by qRT-PCR analysis. Type of experiment: functional, cell-based.
Experiment [10] relates to H9c2. Kind of experiment: Anti-apoptotic activity in H202 induced rat H9c2 cells assessed as increase in Bax level at 80 uM measured after 1.5 hrs by Western blot analysis. Type of experiment: functional, cell-based.
In experiment [11] the test system is H9c2. Kind of experiment: Anti-apoptotic activity in H202 induced rat H9c2 cells assessed as increase in caspase 3 level at 80 uM measured after 1.5 hrs by Western blot analysis. Type of experiment: functional, cell-based.
Experiment [12] relates to H9c2. The experiment can be described thus: Protection against H2O2-induced cell damage in rat H9c2 cells assessed as recovery of cell death at 100 uM. The class given is functional, cell-based.
Experiment [13] concerns H9c2. The experiment can be described thus: Downregulation of H2O2 induced ANP level in rat H9c2 cells at 80 uM measured after 1.5 hrs by qRT-PCR analysis. The class given is functional, cell-based. (In general: Real-time PCR tracks product formation cycle by cycle.)

As to `O=C(CSc1nnc(-c2ccccn2)o1)NC(=O)Nc1ccccn1`, the viability at 20 µM with H9c2 [1] was determined as 54%. Besides, in the experiment with H9c2 [2], the “fold change (FC)” value is given as 1.22.
Taken in the same sequence, the figures for `O=C(CSc1nnc(-c2ccccc2Cl)o1)NC(=O)Nc1ccccn1` were 42.6% and 0.96.
In the case of `O=C(CSc1nnc(-c2ccncc2)o1)NC(=O)Nc1ccccc1`, the viability at 20 µM with H9c2 [1] worked out at 48.5%. Further, in the experiment on H9c2 [2], the “fold change (FC)” value turned out to be 1.16.
Consider `O=C(CSc1nnc(-c2ccncc2)o1)NC(=O)Nc1ccccn1`, for which the viability at 20 µM in the experiment on H9c2 [1] came out at 45.3%. The “fold change (FC)” value in the experiment with H9c2 [2] stood at 1.02.
Taken in the same sequence, the figures for `COc1ccc(NC(=O)CSc2nnc(-c3ccccc3)o2)cc1` were 52.6% and 1.46.
The matching figures for `O=C(Cn1cc(CSc2nnc(-c3ccc(O)cc3)o2)nn1)NC(=O)Nc1ccccn1`: 18.7% and 0.52.
Taken in the same sequence, the figures for `O=C(CSc1nnc(-c2ccc(O)cc2)o1)NC(=O)Nc1ccccn1` were 85.2% and 1.92.
Turning to `COc1ccc(NC(=O)NC(=O)Cn2cc(CSc3nnc(-c4ccccc4)o3)nn2)cc1`, in the experiment on H9c2 [1], the viability at 20 µM amounted to 18.4%. In the experiment with H9c2 [2], the “fold change (FC)” value worked out at 0.51.
With `O=C(CSc1nnc(-c2cccc(Cl)c2)o1)NC(=O)Nc1ccccc1`, the viability at 20 µM in the experiment with H9c2 [1] worked out at 42.5%. Further, the “fold change (FC)” value in the experiment with H9c2 [2] came out at 1.01.
Turning to `COc1cccc(NC(=O)NC(=O)CSc2nnc(-c3ccccc3)o2)c1`, the viability at 20 µM in the experiment with H9c2 [1] came out at 22.6%. Further, the result in the experiment with H9c2 [3], in the experiment on H9c2 [4], with H9c2 [5], in the experiment on H9c2 [6], in the experiment on H9c2 [7] and in the experiment with H9c2 [8] was inactive. The result in the experiment on H9c2 [9], with H9c2 [10], in the experiment on H9c2 [11], with H9c2 [12] and in the experiment on H9c2 [13] was inactive. Moreover, in the experiment on H9c2 [2], the “fold change (FC)” value was determined as 0.69.
On to `O=C(CSc1nnc(-c2ccccc2)o1)NC(=O)Nc1ccc(Cl)cc1`, for which the viability at 20 µM in the experiment with H9c2 [1] was found to be 37.6%. For the same compound, in the experiment on H9c2 [2], the “fold change (FC)” value worked out at 1.14.
The matching figures for `O=C(CSc1nnc(-c2ccccn2)o1)NC(=O)Nc1ccccc1`: 35.5% and 0.85.
The matching figures for `O=C(CSc1nnc(-c2ccc(Cl)cc2)o1)NC(=O)Nc1ccccc1`: 51.5% and 1.23.
Taken in the same sequence, the figures for `O=C(CSc1nnc(-c2cccc(Cl)c2)o1)NC(=O)Nc1ccccn1` were 48.4% and 1.09.
For `COc1cc(NC(=O)NC(=O)CSc2nnc(-c3ccccc3)o2)cc(OC)c1OC`, the viability at 20 µM with H9c2 [1] was 43%. Besides, the “fold change (FC)” value in the experiment with H9c2 [2] amounted to 1.3.
As for `COc1ccc(NC(=O)NC(=O)CSc2nnc(-c3ccccc3)[nH]2)cc1`, the viability at 20 µM in the experiment with H9c2 [1] came to 64.4%. Also, the “fold change (FC)” value in the experiment with H9c2 [2] was determined as 1.69.
Taken in the same sequence, the figures for `O=C(CSc1nnc(-c2ccccc2)o1)Nc1ccccc1` were 46.6% and 1.09.
The matching figures for `O=C(CSc1nnc(-c2ccc(O)cc2)o1)NC(=O)Nc1ncccn1`: 59.1% and 1.49.
With `O=C(CSc1nnc(-c2ccccc2)o1)Nc1ccccn1`, the viability at 20 µM in the experiment with H9c2 [1] is 41.4%. Further, the “fold change (FC)” value in the experiment with H9c2 [2] is recorded as 0.97.
With `O=C(CSC(=S)N1CCNCC1)NC(=O)Nc1ccccc1`, the viability at 20 µM in the experiment on H9c2 [1] was 41.1%. Moreover, in the experiment on H9c2 [2], the “fold change (FC)” value is 1.03.
The matching figures for `COc1ccc(NC(=O)CSc2nnc(-c3ccc(O)cc3)o2)cc1`: 42.9% and 1.
Taken in the same sequence, the figures for `Cc1ccc(NC(=O)NC(=O)CSc2nnc(-c3ccccc3)o2)cc1` were 54.8% and 1.67.
Taken in the same sequence, the figures for `CC(C)c1ccc(NC(=O)NC(=O)CSc2nnc(-c3ccccc3)o2)cc1` were 38.9% and 1.18.
For the compound `O=C(CSc1nnc(-c2cccnc2)o1)NC(=O)Nc1ccccn1`, the viability at 20 µM with H9c2 [1] was found to be 40.5%. In addition, the “fold change (FC)” value with H9c2 [2] is on record as 0.91.
With `Cc1cccc(-c2nnc(SCC(=O)NC(=O)Nc3ccccn3)o2)c1`, in the experiment with H9c2 [1], the viability at 20 µM was found to be 53.5%. Further, the “fold change (FC)” value in the experiment on H9c2 [2] is 1.21.
The matching figures for `O=C(CSc1nnc(-c2ccc(O)cc2)o1)NC(=O)NN1CCOCC1`: 44.2% and 1.12.
`O=C(CSc1nnc(-c2ccccc2)o1)NC(=O)Nc1ccccc1Cl`: in the experiment on H9c2 [1], the viability at 20 µM amounted to 34.5%. In addition, the “fold change (FC)” value in the experiment with H9c2 [2] came to 1.05.
Consider `Cc1ccccc1-c1nnc(SCC(=O)NC(=O)Nc2ccccn2)o1`, for which the viability at 20 µM in the experiment with H9c2 [1] was found to be 66.5%. Besides, in the experiment on H9c2 [2], the “fold change (FC)” value was found to be 1.5.
Taken in the same sequence, the figures for `O=C(CSc1nnc(-c2ccc(O)cc2)o1)NC(=O)NN1CCCCC1` were 29.2% and 0.74.
The matching figures for `COc1ccc(NC(=O)NC(=O)CSc2nnc(-c3ccc(O)cc3)o2)cc1`: 60.5% and 1.68.
The matching figures for `O=C(CSc1nnc(-c2ccc(Cl)cc2)o1)NC(=O)Nc1ccccn1`: 54.9% and 1.24.
`O=C(CSc1nnc(-c2ccc(O)cc2)o1)NC(=O)Nc1nccs1`: the viability at 20 µM with H9c2 [1] is 36.8%. The “fold change (FC)” value in the experiment with H9c2 [2] stood at 0.93.
On to `COc1ccccc1NC(=O)NC(=O)CSc1nnc(-c2ccccc2)o1`, for which the viability at 20 µM with H9c2 [1] was found to be 47%. Besides, the “fold change (FC)” value in the experiment with H9c2 [2] is reported as 1.43.
The matching figures for `O=C(CSc1nnc(-c2ccccc2)o1)NC(=O)Nc1cccc(Cl)c1`: 34% and 1.03.
In the case of `O=C(CSc1nnc(-c2cccnc2)o1)NC(=O)Nc1ccccc1`, in the experiment with H9c2 [1], the viability at 20 µM is 39.2%. For the same compound, in the experiment with H9c2 [2], the “fold change (FC)” value was 0.93.
`O=C(CSc1nnc(-c2ccc(O)cc2)o1)Nc1ccccn1`: the viability at 20 µM with H9c2 [1] turned out to be 55.3%. The “fold change (FC)” value with H9c2 [2] worked out at 1.54.
The matching figures for `O=C(CSc1nnc(-c2ccccc2O)o1)NC(=O)Nc1ccccc1`: 60.7% and 1.45.
The matching figures for `O=C(CSc1nnc(-c2ccccc2)o1)NC(=O)Nc1ccccn1`: 72.5% and 1.79.
The matching figures for `Cc1cccc(-c2nnc(SCC(=O)NC(=O)Nc3ccccc3)o2)c1`: 46.7% and 1.11.
For `Cc1ccc(-c2nnc(SCC(=O)NC(=O)Nc3ccccc3)o2)cc1`, in the experiment on H9c2 [1], the viability at 20 µM was 57.7%. The “fold change (FC)” value in the experiment on H9c2 [2] was found to be 1.38.
Taken in the same sequence, the figures for `Cc1ccc(-c2nnc(SCC(=O)NC(=O)Nc3ccccn3)o2)cc1` were 70.9% and 1.6.
`O=C(CSc1nnc(-c2ccc(O)cc2)o1)NC(=O)Nc1ccccc1`: the viability at 20 µM with H9c2 [1] came to 71.7%. Also, the “fold change (FC)” value in the experiment on H9c2 [2] was found to be 1.71.
Regarding `O=C(CSc1nnc(-c2ccccc2)o1)NC(=O)Nc1ccccc1`, the viability at 20 µM in the experiment with H9c2 [1] was 52.9%. Further, the “fold change (FC)” value with H9c2 [2] stood at 1.32.
`O=C(CSc1nnc(-c2ccccc2Cl)o1)NC(=O)Nc1ccccc1`: the viability at 20 µM in the experiment on H9c2 [1] came out at 40.9%. In the experiment on H9c2 [2], the “fold change (FC)” value stood at 0.98.
As for `O=C(CSc1nnc(-c2ccccc2O)o1)NC(=O)Nc1ccccn1`, the viability at 20 µM in the experiment with H9c2 [1] is 65.7%. For the same compound, in the experiment with H9c2 [2], the “fold change (FC)” value came to 1.48.
The matching figures for `Cc1ccccc1-c1nnc(SCC(=O)NC(=O)Nc2ccccc2)o1`: 56% and 1.34.
For the compound `O=C(CSc1nnc(-c2ccc(O)cc2)o1)NC(=O)Nc1cccnc1`, the viability at 20 µM in the experiment on H9c2 [1] amounted to 64.8%. The “fold change (FC)” value with H9c2 [2] worked out at 1.64.
Taken in the same sequence, the figures for `COCCCNC(=O)NC(=O)CSc1nnc(-c2ccc(O)cc2)o1` were 69.5% and 1.76.
